# Reference: ChEMBL document CHEMBL4130488, “Synthesis and biological evaluation of novel non-racemic indole-containing allocolchicinoids” (Eur J Med Chem, 2017)
# Calls of active or inactive are those of the source. The calls are words filed in the database; no cut-off is given here.
# What was measured:
# COLO357 [1] = assay: Growth inhibition of human Colo-357 cells incubated for 72 hrs by MTT assay; type: functional
# MIA PaCa-2 = assay: Cytotoxic activity in human MIAPaCa2 cells assessed as reduction in cell viability incubated for 72 hrs by MTT assay; type: functional, cell-based; conditions: MIA PaCa-2, 72 h
# COLO357 [2] = assay: Cytotoxic activity in human Colo-357 cells assessed as reduction in cell viability incubated for 72 hrs by MTT assay; type: functional, cell-based; conditions: COLO357, 72 h
# COLO357 [3] = assay: Induction of cell cycle arrest in human Colo-357 cells assessed as accumulation at G2/M phase at 5 uM incubated for 72 hrs by propidium iodide staining based flow cytometry (reference value: 31%); type: functional
# Homo sapiens [4] = organism: Homo sapiens; assay: Inhibition of beta tubulin assembly in human Colo-357 cells at 5 uM incubated for 24 hrs by anti-tubulin antibody based confocal microscopy; type: cell-based
# HEK293 [5] = assay: Cytotoxic activity in HEK293 cells assessed as reduction in cell viability incubated for 72 hrs by MTT assay; type: cell-based; conditions: Homo sapiens, HEK293, 72 h
# COLO357 [6] = assay: Induction of cell cycle arrest in human Colo-357 cells assessed as accumulation at […] phase at 5 uM incubated for 72 hrs by propidium iodide staining based flow cytometry (reference value: 1.8%); type: functional
# COLO357 [7] = assay: Induction of apoptosis in human Colo-357 cells at 5 uM incubated for 72 hrs by propidium iodide staining based flow cytometry (reference value: 12.4%); type: functional
# COLO357 [8] = assay: Induction of cell cycle arrest in human Colo-357 cells assessed as accumulation at G phase at 5 uM incubated for 72 hrs by propidium iodide staining based flow cytometry (reference value: 56.6%); type: functional
# [9] = Gastrointestinal toxicity in human HT-29 cells assessed as effect on membrane integrity at 5 uM incubated for 3 hrs by flow cytometry; type: cell-based; conditions: ht-29, 3 h
# HT-29 = assay: Cytotoxic activity in human HT-29 cells assessed as reduction in cell viability at 0.1 to 100000 nM incubated for 24 hrs by MTT assay; type: functional, cell-based
# HEK293 [10] = assay: Cytotoxic activity in HEK293 cells assessed as reduction in cell viability at 0.1 to 100000 nM incubated for 24 hrs by MTT assay; type: cell-based; conditions: human, hek293, 24 h, 100 µM
# COLO357 [11] = assay: Induction of mitochondrial changes in human Colo-357 cells at 5 uM incubated for 3 hrs by flow cytometry; type: functional, cell-based
# Homo sapiens [12] = organism: Homo sapiens; assay: Inhibition of beta tubulin assembly in human Colo-357 cells at 5 uM incubated for 3 hrs by anti-tubulin antibody based confocal microscopy; type: cell-based
# [13] = Gastrointestinal toxicity in human HT-29 cells assessed as effect on EPR at 5 uM incubated for 3 hrs by flow cytometry; type: cell-based; conditions: ht-29, 3 h
# [14] = Gastrointestinal toxicity in human HT-29 cells assessed as effect on endosomes at 5 uM incubated for 3 hrs by flow cytometry; type: cell-based; conditions: ht-29, 3 h
# [15] = Gastrointestinal toxicity in human HT-29 cells assessed as mitochondrial stimulation at 5 uM incubated for 3 hrs by flow cytometry; type: cell-based; conditions: ht-29, 3 h
# [16] = Gastrointestinal toxicity in human HT-29 cells assessed as effect on golgi apparatus at 5 uM incubated for 3 hrs by flow cytometry; type: cell-based; conditions: ht-29, 3 h
# PANC-1 = assay: Cytotoxic activity in human PANC1 cells assessed as reduction in cell viability at 0.1 to 100000 nM incubated for 24 hrs by MTT assay; type: functional, cell-based
# [17] = Gastrointestinal toxicity in human HT-29 cells assessed as lysosomal membrane potential at 5 uM incubated for 3 hrs by flow cytometry; type: cell-based; conditions: ht-29, 3 h
# [18] = Gastrointestinal toxicity in human HT-29 cells assessed as relocation from perinuclear position to cytoplasm at 5 uM incubated for 3 hrs by flow cytometry; type: cell-based; conditions: ht-29, 3 h
# [19] = Gastrointestinal toxicity in human HT-29 cells assessed as increase in mitochondrial number at 5 uM incubated for 3 hrs by flow cytometry; type: cell-based; conditions: ht-29, 3 h
# [20] = Gastrointestinal toxicity in human HT-29 cells assessed as increase in mitochondrial membrane potential at 5 uM incubated for 3 hrs by flow cytometry; type: cell-based; conditions: ht-29, 3 h
Compound,growth inhibition (GI) (COLO357 [1]),IC50 (MIA PaCa-2; read-out: IC50) [nM],IC50 (COLO357 [2]; read-out: IC50) [nM],Activity (COLO357 [3]) [%],inhibition (Homo sapiens [4]),IC50 (HEK293 [5]) [nM],Activity (COLO357 [6]) [%],Activity (COLO357 [7]) [%],Activity (COLO357 [8]) [%],Activity [9],Activity [13],Activity [14],Activity [16],Activity [17],other results
COc1c(Br)c2c(c(OC)c1OC)-c1cc3cc(CO)[nH]c3cc1[C@@H](NC(C)=O)CC2,60 - 80%,10,3.5,61,Active,160,0.3,23,16,,,,,,
COc1c(Br)c2c(c(OC)c1OC)-c1cc3cc(CO)n(C)c3cc1[C@@H](NC(C)=O)CC2,60 - 80%,< 0.1,0.3,63,Active,6.4,0.2,25,12,Non-Toxic,Non-Toxic,Non-Toxic,Non-Toxic,Non-Toxic,Activity (HT-29): Active; Activity (HEK293 [10]): Non-Toxic; Activity (COLO357 [11]): Active; inhibition (Homo sapiens [12]): Active; Activity [15]: Non-Toxic; Activity (PANC-1): inactive
COc1cc2c(c(OC)c1OC)-c1ccc(OC)c(=O)cc1[C@@H](NC(C)=O)CC2 [COLCHICINE],60 - 80%,,,75,Active,32,0.2,12.4,12.6,Non-Toxic,Non-Toxic,Non-Toxic,Non-Toxic,Toxic,IC50 (MIA PaCa-2): 1.3 nM; Activity [18]: Toxic; IC50 (COLO357 [2]): 1.3 nM; Activity [19]: Toxic; Activity [20]: Toxic
